Target: T1, M2 muscarinic receptor (M2) (Homo sapiens, UniProt P08172)
T1 construct: gene CHRM2; full-length human receptor, cDNA from Missouri S&T cDNA Resource Center, expressed in CHO cells; membranes
T1 sequence (P08172 1-466): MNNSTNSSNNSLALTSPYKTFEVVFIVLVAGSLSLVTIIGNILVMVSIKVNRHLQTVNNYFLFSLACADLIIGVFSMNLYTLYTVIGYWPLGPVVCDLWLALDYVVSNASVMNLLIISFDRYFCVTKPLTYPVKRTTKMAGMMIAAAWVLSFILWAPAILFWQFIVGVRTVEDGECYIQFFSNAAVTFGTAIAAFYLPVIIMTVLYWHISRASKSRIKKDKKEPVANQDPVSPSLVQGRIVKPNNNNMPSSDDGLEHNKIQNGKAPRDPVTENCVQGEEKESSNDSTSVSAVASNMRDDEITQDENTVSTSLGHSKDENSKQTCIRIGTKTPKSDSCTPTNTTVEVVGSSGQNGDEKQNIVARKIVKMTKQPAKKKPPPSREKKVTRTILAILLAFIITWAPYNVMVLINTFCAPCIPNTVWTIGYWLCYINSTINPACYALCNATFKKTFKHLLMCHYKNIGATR
Test: radioligand saturation binding, CHO membranes
Settings: labelled compound; […] h, […] °C, pH […]

C[N+]1(C)[C@@H]2C[C@@H](OC(=O)[C@H](CO)c3ccccc3)C[C@H]1[C@@H]1O[C@@H]12 [[3H]N-methylscopolamine]
KD: equilibrium dissociation constant KD, expressed in nM, of [^3H]NMS (muscarinic)
